Assay results: PubChem BioAssay AID1963848 (Molecular Pharmacology Branch, DTP, NCI, 2024)

Test system: 379773-124-R-J2-PDC spheroid viability
Assay: Anticancer human tumor 379773-124-R-J2-PDC patient-derived endometrial carcinoma cell line growth inhibition [POLQ]
Settings: spheroids with HUVEC and MSC; for IC50: curve of first compound; for viability, T/C: stronger effect = lower value; active means viability on the fitted dose curve at most 10% of control; inactive means the rest
In short: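 PDC + HUVEC + MSC complex spheroids; POLQ inhibitors ± partner drugs; top conc. at/near clinical Cmax, else 10 microM (SN-38 1 microM), half-log dilutions; 37 degrees C, 5% CO2.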

[1] = second compound 0.0316 µM, first compound 0.0316 µM
[2] = second compound 0.0316 µM, first compound 0.1 µM
[3] = second compound 0.0316 µM, first compound 0.316 µM
[4] = second compound 0.0316 µM, first compound 1 µM
[5] = second compound 0.0316 µM, first compound 3.16 µM
[6] = second compound 0.0316 µM, first compound 10 µM
[7] = second compound 0.1 µM, first compound 0.0316 µM
[8] = second compound 0.1 µM, first compound 0.1 µM
[9] = second compound 0.1 µM, first compound 0.316 µM
[10] = second compound 0.1 µM, first compound 1 µM
[11] = second compound 0.1 µM, first compound 3.16 µM
[12] = second compound 0.1 µM, first compound 10 µM
[13] = second compound 0.316 µM, first compound 0.0316 µM
[14] = second compound 0.316 µM, first compound 0.1 µM
[15] = second compound 0.316 µM, first compound 0.316 µM
[16] = second compound 0.316 µM, first compound 1 µM
[17] = second compound 0.316 µM, first compound 3.16 µM
[18] = second compound 0.316 µM, first compound 10 µM
[19] = second compound 1 µM, first compound 0.0316 µM
[20] = second compound 1 µM, first compound 0.1 µM
[21] = second compound 1 µM, first compound 0.316 µM
[22] = second compound 1 µM, first compound 1 µM
[23] = second compound 1 µM, first compound 3.16 µM
[24] = second compound 1 µM, first compound 10 µM
[25] = second compound 3.16 µM, first compound 0.0316 µM
[26] = second compound 3.16 µM, first compound 0.1 µM
[27] = second compound 3.16 µM, first compound 0.316 µM
[28] = second compound 3.16 µM, first compound 1 µM
[29] = second compound 3.16 µM, first compound 3.16 µM
[30] = second compound 3.16 µM, first compound 10 µM
[31] = second compound 10 µM, first compound 0.0316 µM
[32] = second compound 10 µM, first compound 0.1 µM
[33] = second compound 10 µM, first compound 0.316 µM
[34] = second compound 10 µM, first compound 1 µM
[35] = second compound 10 µM, first compound 3.16 µM
[36] = second compound 10 µM, first compound 10 µM
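Further: spheroids exposed to drugs for seven days before readout.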
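Wherever viability, T/C is given: percent viability relative to DMSO vehicle control taken as 100%.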

O=C(c1cc(Cc2n[nH]c(=O)c3ccccc23)ccc1F)N1CCN(C(=O)C2CC2)CC1 + COC1C(OC(N)=O)C(O)C(Oc2ccc3c(O)c(NC(=O)c4ccc(O)c(CC=C(C)C)c4)c(=O)oc3c2C)OC1(C)C
6.65 µM: IC50 (second compound 0.0316 µM)
7.63 µM: IC50 (second compound 1 µM)
9.68 µM: IC50 (second compound 0.1 µM)
9.44 µM: IC50 (second compound 10 µM)
inactive: viability, T/C [1] 87.3% | viability, T/C [2] 80.7% | viability, T/C [3] 88.5% | viability, T/C [4] 82.4% | viability, T/C [5] 71.2% | viability, T/C [6] 38.2% | viability, T/C [7] 92.5% | viability, T/C [8] 76.6% | viability, T/C [9] 86.9% | viability, T/C [10] 81.4% | viability, T/C [11] 88.1% | viability, T/C [12] 48.9% | viability, T/C [13] 82.4% | viability, T/C [14] 91.8% | viability, T/C [15] 88.1% | viability, T/C [16] 85.8% | viability, T/C [17] 74.8% | viability, T/C [18] 44.7% | viability, T/C [19] 85.1% | viability, T/C [20] 80% | viability, T/C [21] 78.3% | viability, T/C [22] 84.4% | viability, T/C [23] 72.2% | viability, T/C [24] 42.8% | viability, T/C [25] 80.2% | viability, T/C [26] 82.8% | viability, T/C [27] 76.5% | viability, T/C [28] 73.2% | viability, T/C [29] 73.3% | viability, T/C [30] 48% | viability, T/C [31] 70.5% | viability, T/C [32] 78.8% | viability, T/C [33] 74.1% | viability, T/C [34] 72.7% | viability, T/C [35] 73.5% | viability, T/C [36] 48.8%
8.28 µM: IC50 (second compound 0.316 µM)
9.21 µM: IC50 (second compound 3.16 µM)

COc1cc(C2c3cc4c(cc3C(OC3OC5COC(C)OC5C(O)C3O)C3COC(=O)C23)OCO4)cc(OC)c1O (centres undefined) + Nc1ccc(C#CCN(C(=O)Cc2ncc(C(F)(F)F)cc2C(F)(F)F)c2ccc(F)cc2)nn1
1.41 µM: IC50 (second compound 3.16 µM)
1.5 µM: IC50 (second compound 0.0316 µM)
1.24 µM: IC50 (second compound 1 µM) | IC50 (second compound 10 µM)
1.57 µM: IC50 (second compound 0.1 µM)
1.49 µM: IC50 (second compound 0.316 µM)
inactive: viability, T/C [1] 95.4% | viability, T/C [2] 116% | viability, T/C [3] 81.9% | viability, T/C [4] 70.4% | viability, T/C [5] 17% | viability, T/C [6] 15.5% | viability, T/C [7] 98.8% | viability, T/C [8] 86% | viability, T/C [9] 90% | viability, T/C [10] 70.2% | viability, T/C [11] 18.6% | viability, T/C [12] 14.1% | viability, T/C [13] 92.5% | viability, T/C [14] 116% | viability, T/C [15] 97% | viability, T/C [16] 67.4% | viability, T/C [17] 15.9% | viability, T/C [18] 16.8% | viability, T/C [19] 99.1% | viability, T/C [20] 96.2% | viability, T/C [21] 78.4% | viability, T/C [22] 62.2% | viability, T/C [23] 17.3% | viability, T/C [24] 13.8% | viability, T/C [25] 94.1% | viability, T/C [26] 96.1% | viability, T/C [27] 81.7% | viability, T/C [28] 65.1% | viability, T/C [29] 18.2% | viability, T/C [30] 13.6% | viability, T/C [31] 98% | viability, T/C [32] 92.7% | viability, T/C [33] 98% | viability, T/C [34] 57.6% | viability, T/C [35] 16.9% | viability, T/C [36] 16.3%
